Measurements as given in patent publication US7875647B2, “Heteroaryl-pyrazole derivatives as cannabinoid CB1 receptor antagonists” (Green Cross Corporation, priority 2006, dated 2011).

The compounds below were run against T1, Cannabinoid-1 receptor (CB1R) (Rattus norvegicus, UniProt P20272) (assay: Cannabinoid-1 receptor (CB1R) binding affinity assay ([3H]CP-55940, rat CB-1 receptor binding protocol)). Settings: brain tissue of SD rats, [3H]CP-55940, 30° C. 60 min; read-out: IC50.
T1 construct: The tissue obtained from the brain of SD rats was homogenized; from tissue; host or cells: brain of SD rats (membrane pellet of the homogenate)
T1 sequence (P20272 whole entry): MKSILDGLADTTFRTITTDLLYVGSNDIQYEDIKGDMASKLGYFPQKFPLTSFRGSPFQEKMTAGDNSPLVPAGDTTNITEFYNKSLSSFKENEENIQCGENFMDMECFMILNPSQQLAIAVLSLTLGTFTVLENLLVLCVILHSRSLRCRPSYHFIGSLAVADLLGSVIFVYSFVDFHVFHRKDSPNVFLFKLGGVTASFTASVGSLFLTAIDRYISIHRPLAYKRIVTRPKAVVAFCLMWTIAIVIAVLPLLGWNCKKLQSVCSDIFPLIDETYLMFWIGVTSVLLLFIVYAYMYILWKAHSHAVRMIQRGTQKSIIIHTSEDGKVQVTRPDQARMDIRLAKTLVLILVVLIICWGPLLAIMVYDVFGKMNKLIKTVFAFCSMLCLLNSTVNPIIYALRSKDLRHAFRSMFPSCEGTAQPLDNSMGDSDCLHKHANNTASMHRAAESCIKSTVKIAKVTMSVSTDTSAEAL

Row | Compound | IC50 [nM]
1 | C=CCOC(C)(C)c1nnc(-c2nn(-c3ccc(Cl)cc3Cl)c(-c3ccc(Br)cc3)c2CC)o1 [Example 238, 2-(2-(allyloxy)propan-2-yl)-5-(5-(4-bromophenyl)-1-(2,4-dichlorophenyl)-4-ethyl-1H-pyrazol-3-yl)-1,3,4-oxadiazole] | 18.4
2 | CCCCCn1nnc(-c2nn(-c3ccc(Cl)cc3Cl)c(-c3ccc(Cl)cc3)c2C)n1 [Example 574, 5-(5-(4-Chlorophenyl)-1-(2,4-dichlorophenyl)-4-methyl-1H-pyrazol-3-yl)-2-pentyl-2H-tetrazole] | 122
3 | CCCC(C)c1nnc(-c2nn(-c3ccc(Cl)cc3Cl)c(-c3ccc(Br)cc3)c2C)s1 (stereo not shown) [Example 413, 2-(5-(4-bromophenyl)-1-(2,4-dichlorophenyl)-4-methyl-1H-pyrazol-3-yl)-5-(pentan-2-yl)-1,3,4-thiadiazole] | 14.6
4 | CCC1(c2nnc(-c3nn(-c4ccc(Cl)cc4Cl)c(-c4ccc(Cl)cc4)c3C)s2)CC1 [Example 488, 2-(5-(4-chlorophenyl)-1-(2,4-dichlorophenyl)-4-methyl-1H-pyrazol-3-yl)-5-(1-ethylcyclopropyl)-1,3,4-thiadiazole] | 106
5 | Cc1c(-c2nnc(C3CCCO3)s2)nn(-c2ccc(Cl)cc2Cl)c1-c1ccc(Cl)cc1 (stereo not shown) [Example 359, 2-(5-(4-Chlorophenyl)-1-(2,4-dichlorophenyl)-4-methyl-1H-pyrazol-3-yl)-5-(tetrahydrofuran-2-yl)-1,3,4-thiadiazole] | 27.6
6 | CCc1cnc(-c2nn(-c3ccc(Cl)cc3Cl)c(-c3ccc(Cl)cc3)c2C)o1 [Example 640, 2-(5-(4-chlorophenyl)-1-(2,4-dichlorophenyl)-4-methyl-1H-pyrazol-3-yl)-5-ethyloxazole] | 51.4
7 | CCC(C)c1nnc(-c2nn(-c3ccc(Cl)cc3Cl)c(-c3ccc(Cl)cc3)c2Cl)s1 (stereo not shown) [Example 539, 2-sec-butyl-5-(4-chloro-5-(4-chlorophenyl)-1-(2,4-dichlorophenyl)-1H-pyrazol-3-yl)-1,3,4-thiadiazole] | 102
8 | Cc1c(-c2nnc(-c3ccncc3)o2)nn(-c2ccc(Cl)cc2Cl)c1-c1ccc(Cl)cc1 [Example 2, 2-(5-(4-chlorophenyl)-1-(2,4-dichlorophenyl)-4-methyl-1H-pyrazol-3-yl)-5-(pyridin-4-yl)-1,3,4-oxadiazole] | 563
9 | CC#Cc1c(-c2nnc(C(C)(C)C)o2)nn(-c2ccc(Cl)cc2Cl)c1-c1ccc(Cl)cc1 [Example 261, 2-tert-butyl-5-(5-(4-chlorophenyl)-1-(2,4-dichlorophenyl)-4-(prop-1-ynyl)-1H-pyrazol-3-yl)-1,3,4-oxadiazole] | 15.4
10 | Clc1ccc(-c2c(Cl)c(-c3nnc(C4CCC4)s3)nn2-c2ccc(Cl)cc2Cl)cc1 [Example 536, 2-(4-chloro-5-(4-chlorophenyl)-1-(2,4-dichlorophenyl)-1H-pyrazol-3-yl)-5-cyclobutyl-1,3,4-thiadiazole] | 199
11 | Cc1c(-c2nnc(C(C)(C)C)s2)nn(-c2ccc(Cl)cc2Cl)c1-c1ccc(Cl)cc1 [Example 372, 2-tert-Butyl-5-(5-(4-chlorophenyl)-1-(2,4-dichlorophenyl)-4-methyl-1H-pyrazol-3-yl)-1,3,4-thiadiazole] | 25.2
12 | CC(C)(C)c1nnc(-c2nn(-c3ccc(Cl)cc3Cl)c(-c3ccc(Cl)cc3)c2COc2ccccc2)o1 [Example 233, 2-tert-butyl-5-(5-(4-chlorophenyl)-1-(2,4-dichlorophenyl)-4-(phenoxymethyl)-1H-pyrazol-3-yl)-1,3,4-oxadiazole] | 28.9
13 | CCc1c(-c2nnc(C3(c4ccc(Cl)cc4)CC3)o2)nn(-c2ccc(Cl)cc2Cl)c1-c1ccc(Br)cc1 [Example 111, 2-(5-(4-bromophenyl)-1-(2,4-dichlorophenyl)-4-ethyl-1H-pyrazol-3-yl)-5-(1-(4-chlorophenyl)cyclopropyl)-1,3,4-oxadiazole] | 3.96
14 | CC(=O)OCC(C)(C)c1nnc(-c2nn(-c3ccc(Cl)cc3Cl)c(-c3ccc(Cl)cc3)c2C)o1 [Example 252, 2-(5-(5-(4-chlorophenyl)-1-(2,4-dichlorophenyl)-4-methyl-1H-pyrazol-3-yl)-1,3,4-oxadiazol-2-yl)-2-methylpropyl acetate] | 54.5
15 | 2-(1-benzylcyclopropyl)-5-(5-(4-chlorophenyl)-1-(2,4-dichlorophenyl)-4-methyl-1H-pyrazol-3-yl)-1,3,4-thiadiazole [Example 467] | 14.8

The remaining compounds from weak to strong by IC50, led by results:

Row | IC50 [nM] | Compound
16 | 966 | Cc1c(-c2nnc(C3CCC3)s2)nn(-c2ccc(Cl)cc2)c1-c1ccc(Br)cc1 [Example 424, 2-(5-(4-bromophenyl)-1-(4-chlorophenyl)-4-methyl-1H-pyrazol-3-yl)-5-cyclobutyl-1,3,4-thiadiazole]
17 | 550 | Cc1c(-c2nnc(C3(c4ccc(Cl)cc4)CC3)o2)nn(-c2ccc(Cl)cc2)c1-c1ccc(Cl)cc1 [Example 119, 2-(1,5-Bis(4-chlorophenyl)-4-methyl-1H-pyrazol-3-yl)-5-(1-(4-chlorophenyl)cyclopropyl)-1,3,4-oxadiazole]
18 | 476 | Cc1c(-c2n[nH]c(-c3ccccc3)n2)nn(-c2ccc(Cl)cc2Cl)c1-c1ccc(Cl)cc1 [Example 613, 3-(5-(4-Chlorophenyl)-1-(2,4-dichlorophenyl)-4-methyl-1H-pyrazol-3-yl)-5-phenyl-1H-1,2,4-triazole]
19 | 135 | Cc1c(-c2nnnn2CCc2ccccc2)nn(-c2ccc(Cl)cc2Cl)c1-c1ccc(Cl)cc1 [Example 591, 5-(5-(4-Chlorophenyl)-1-(2,4-dichlorophenyl)-4-methyl-1H-pyrazol-3-yl)-1-phenethyl-1H-tetrazole]
20 | 134 | CCC(C)(C)c1nnc(-c2nn(-c3ccc(Cl)cc3)c(-c3ccc(Br)cc3)c2C)s1 [Example 417, 2-(5-(4-bromophenyl)-1-(4-chlorophenyl)-4-methyl-1H-pyrazol-3-yl)-5-tert-pentyl-1,3,4-thiadiazole]
21 | 60.9 | CCC(C)c1nc(-c2nn(-c3ccc(Cl)cc3Cl)c(-c3ccc(Cl)cc3)c2C)nn1C(C)C (stereo not shown) [Example 633, 5-sec-butyl-3-(5-(4-chlorophenyl)-1-(2,4-dichlorophenyl)-4-methyl-1H-pyrazol-3-yl)-1-isopropyl-1H-1,2,4-triazole]
22 | 22.7 | Cc1c(-c2nnc(CC3CCCCC3)o2)nn(-c2ccc(Cl)cc2Cl)c1-c1ccc(Cl)cc1 [Example 24, 2-(5-(4-Chlorophenyl)-1-(2,4-dichlorophenyl)-4-methyl-1H-pyrazol-3-yl)-5-(cyclohexylmethyl)-1,3,4-oxadiazole]
23 | 22.4 | CC(=O)OCc1c(-c2nnc(C(C)(C)C)o2)nn(-c2ccc(Cl)cc2Cl)c1-c1ccc(Cl)cc1 [Example 196, (3-(5-tert-butyl-1,3,4-oxadiazol-2-yl)-5-(4-chlorophenyl)-1-(2,4-dichlorophenyl)-1H-pyrazol-4-yl)methyl acetate]
24 | 6.47 | CC(O)c1c(-c2nnc(C(C)(C)C)s2)nn(-c2ccc(Cl)cc2Cl)c1-c1ccc(Br)cc1 (stereo not shown) [Example 528, 1-(5-(4-bromophenyl)-3-(5-tert-butyl-1,3,4-thiadiazol-2-yl)-1-(2,4-dichlorophenyl)-1H-pyrazol-4-yl)ethanol]
25 | 3.94 | CCc1c(-c2nnc(C3(c4ccc(Cl)cc4Cl)CC3)s2)nn(-c2ccc(Cl)cc2Cl)c1-c1ccc(Cl)cc1 [Example 482, 2-(5-(4-chlorophenyl)-1-(2,4-dichlorophenyl)-4-ethyl-1H-pyrazol-3-yl)-5-(1-(2,4-dichlorophenyl)cyclopropyl)-1,3,4-thiadiazole]
